Measurements as given in patent publication US6872805B2 (Bristol-Myers Squibb Company, priority 2000, dated 2005).

Columns and labels:
[1] = target: HCV NS3/4A protease complex (Hepatitis C virus genotype 1a, UniProt P27958, C1454S/C1711G); assay: Recombinant HCV NS3/4A protease complex FRET peptide assay (strain not stated); type: biochemical; details: IC50, NS3/4A protease enzyme assay, strain not stated; activity ranges
From the text: The purpose of this in vitro assay was to measure the inhibition of HCV NS3 protease complexes, derived from the BMS, H77C or J416S strains, as described below, by compounds of the present invention.
Serum from an HCV-infected patient was obtained from Dr. T. Wright, San Francisco Hospital. An engineered full-length cDNA template of the HCV genome (BMS strain) was constructed from DNA fragments obtained by reverse transcription-PCR (RT-PCR) of serum RNA and using primers selected on the basis of homology between other genotype 1a strains. […] The infectious clones, H77C (1a genotype) and J4L6S (1b genotype) were obtained from R. Purcell (NIH) and the sequences are published in genebank (AAB67036, see Yanagi, M., Purcell, R. H., Emerson, S. U. and Bukh, J. Proc. Natl. Acad. Sci. U.S.A. 94(16),8738-8743 (1997); AF054247, see Yanagi, M., St Claire, M., Shapiro, M., Emerson, S. U., Purcell, R. H. and Bukh, J, Virology 244 (1), 161-172. (1998)).
The BMS, H77C and J4L6S strains were used for production of recombinant NS3/4A protease complexes. DNA encoding the recombinant HCV NS3/4A protease complex (amino acid 1027 to 1711) for these strains were manipulated as described by P. Gallinari et al. (see Gallinari P, Paolini C, Brennan D, Nardi C, Steinkuhler C, De Francesco R. Biochemistry. 38(17):5620-32, (1999)). Briefly, a three-lysine solubilizing tail was added at the 3′-end of the NS4A coding region. The cysteine in the P1 position of the NS4A-NS4B cleavage site (amino acid 1711) was changed to a glycine to avoid the proteolytic cleavage of the lysine tag. Furthermore, a cysteine to serine mutation was introduced by PCR at amino acid position 1454 to prevent the autolytic cleavage in the NS3 helicase domain. The variant DNA fragment was cloned in the pET21b bacterial expression vector and the NS3/4A complex was expressed in E. coli BL21 (DE3) following the protocol described by P. Gallinari et al. (see Gallinari P, Brennan D, Nardi C, Brunetti M, Tomei L, Steinkuhler C, De Francesco R., J Virol. 72(8):6758-69 (1998)) with modifications. Briefly, NS3/4A expression was induced with 0.5 mM IPTG for 22 hr at 20° C. […] The cells were resuspended in lysis buffer (10 mL/g) consisting of 25 mM HEPES, pH 7.5, 20% glycerol, 500 mM NaCl, 0.5% Triton-X100, 1 ug/ml lysozyme, 5 mM MgCl2, 1 ug/ml DNaseI 5 mM β-Mercaptoethanol (βME), Protease inhibitor—EDTA free, homogenized and incubated for 20 mins at 4° C. The homogenate was sonicated and clarified by ultra-centrifugation at 235000 g for 1 hr at 4° C. Imidazole was added to the supernatant to a final concentration of 15 mM and the pH adjusted to 8.0. The crude protein extract was loaded on a Ni-NTA column pre-equilibrated with buffer B (25 mM HEPES, pH 8.0, 20% glycerol, 500 mM NaCl, 0.5% Triton-X100, 15 mM imidazole, 5 mM βME). The sample was loaded at a flow rate of 1 mL/min. The column was washed with 15 column volumes of buffer C (same as buffer B except with 0.2% Triton-X100). The protein was eluted with 5 column volumes of 200 mM Imidazole in buffer.
NS3/4A protease complex-containing fractions were pooled and loaded on a desalting column Superdex-S200 pre-equilibrated with buffer D (25 mM HEPES, pH 7.5, 20% glycerol, 300 mM NaCl, 0.2% Triton-X100, 10 mM βME). Sample was loaded at a flow rate of 1 mL/min. NS3/4A protease complex-containing fractions were pooled and concentrated to approximately 0.5 mg/ml.

[2] = test system: HCV replicon in Huh7 cells; assay: HCV replicon cell-based assay; set-up: species or system HCV strain 1B; details: Hepatitis C virus, Huh-7, 96 h; HCV replicon, Huh7 cells, 4 days; activity ranges; read-out: EC50
From the text: An HCV replicon whole cell system was established as described by Lohmann V, Korner F, Koch J, Herian U, Theilmann L, Bartenschlager R., Science 285(5424):110-3 (1999). This system enabled us to evaluate the effects of our HCV Protease compounds on HCV RNA replication. Briefly, using the HCV strain 1B sequence described in the Lohmann paper (Assession number:AJ238799), an HCV cDNA was generated encoding the 5′ internal ribosome entry site (IRES), the neo gene, the EMCV-IRES and the HCV nonstructural proteins, NS3-NS5B, and 3′ NTR. […] Resulting cell lines were characterized for positive and negative RNA production and protein production over time.
Huh7 cells, constitutively expressing the HCV replicon, were grown in DMEM containing 10% FCS (Fetal calf serum) and 1 mg/ml G418 (Gibco-BRL). Cells were seeded the night before (1.5×10^4 cells/well) in 96-well tissue-culture sterile plates. Compound was prepared in DMEM containing 4% FCS, 1:100 Penicillin/Streptomysin, 1:100 L-glutamine and 0.5% DMSO. Compound/DMSO mixes were added to the cells and incubated for 4 days at 37° C. After 4 days, cells were either lyzed using the Rneasy kit (Qiagen) to isolate and purify RNA for an EC50 determination or assessed for cytotoxicity using alamar Blue (Trek Diagnotstic Systems) for a CC50 reading. For an EC50 determination, purified total RNA was normalized using RiboGreen (Jones L J, Yue S T, Cheung C Y, Singer V L, Anal. Chem., 265(2):368-74 (1998)) and relative quantitation of HCV RNA expression assessed using the Taqmann procedure (Kolykhalov A A, Mihalik K, Feinstone S M, Rice C M, Journal of Virology 74, 2046-2051 (2000)). Briefly, RNA made to a volume of 5 μl (≦1 ng) was added to a 20 μl Ready-Mix containing the following: 5×EZ rTth buffer, 3 mM MnOAc2, 3 mM dNTPs, 200 nM forward primer, 600 nM reverse primer, 100 nM probe and rTth polymerase. Samples containing known concentrations of HCV RNA transcript were run as standards. Using the following cycling protocol (95° C., 1 min; 60° C., 0.5 min; 95° C., 2 min; 40 cycles of 94° C., 0.5 min, 60° C.; 1 min; and completing with 60° C., 10 min), HCV RNA expression was quantitated as described in the Perkin Elmer manual. The toxicity of compound (CC50) was determined by adding 1/10th volume of alamar Blue to the media incubating the cells. After 4 hr, the fluorescence signal from each well was read, with an excitation wavelength at 530 nm and an emission wavelength of 580 nm, using the Cytofluor Series 4000 (Perspective Biosystems).

Chain of HCV NS3/4A protease complex (P27958 1027-1711, stated change not applied): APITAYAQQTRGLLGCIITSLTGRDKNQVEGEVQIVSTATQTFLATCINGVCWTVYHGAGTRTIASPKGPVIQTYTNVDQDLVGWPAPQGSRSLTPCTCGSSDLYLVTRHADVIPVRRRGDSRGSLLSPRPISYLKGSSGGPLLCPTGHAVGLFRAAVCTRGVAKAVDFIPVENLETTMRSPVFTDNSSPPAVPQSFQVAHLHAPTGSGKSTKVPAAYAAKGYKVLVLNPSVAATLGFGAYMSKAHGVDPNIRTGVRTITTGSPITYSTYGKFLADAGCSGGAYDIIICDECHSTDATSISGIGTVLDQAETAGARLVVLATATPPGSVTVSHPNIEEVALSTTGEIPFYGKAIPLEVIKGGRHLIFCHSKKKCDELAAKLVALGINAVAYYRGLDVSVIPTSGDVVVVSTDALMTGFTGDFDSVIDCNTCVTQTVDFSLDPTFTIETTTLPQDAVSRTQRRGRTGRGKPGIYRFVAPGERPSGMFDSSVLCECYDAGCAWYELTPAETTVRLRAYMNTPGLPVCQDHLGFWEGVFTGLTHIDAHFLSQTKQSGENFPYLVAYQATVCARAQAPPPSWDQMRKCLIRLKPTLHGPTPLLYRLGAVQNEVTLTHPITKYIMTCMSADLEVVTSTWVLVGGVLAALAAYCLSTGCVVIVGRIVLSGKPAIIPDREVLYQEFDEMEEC
Chain of HCV NS3/4A protease complex (P27958 1027-1711, stated change not applied): as above

C=C[C@@H]1C[C@]1(NC(=O)C1C[C@@H](Oc2cc(-c3ccccc3)nc3cc(OC)ccc23)CN1C(=O)[C@@H](NC(=O)COC(C)=O)C(C)(C)C)C(=O)NS(=O)(=O)C1CC1 (stereo partly drawn) [Compound 106, acetic acid {1S-[2S-(1R-cyclopropanesulfonylaminocarbonyl-2S-vinyl-cyclopropylcarbamoyl)-4R-(7-methoxy-2-phenyl-quinolin-4-yloxy)-pyrrolidine-1-carbonyl]-2,2-dimethyl-propylcarbamoyl}-methyl ester]
IC50 [1]: < 50 nM
EC50 [2]: < 500 nM

C=C[C@@H]1C[C@]1(NC(=O)C1C[C@@H](Oc2cc(-c3ccccc3)nc3cc(OC)ccc23)CN1C(=O)[C@@H](NC(=O)OCC(C)(C)C)C(C)(C)C)C(=O)NS(=O)(=O)C1CC1 (stereo partly drawn) [Compound 125, {1S-[2S-(1R-cyclopropanesulfonylaminocarbonyl-2S-vinyl-cyclopropylcarbamoyl)-4R-(7-methoxy-2-phenyl-quinolin-4-yloxy)-pyrrolidine-1-carbonyl]-2,2-dimethyl-propyl}-carbamic acid 2,2-dimethyl-propyl ester]
IC50 [1]: < 50 nM
EC50 [2]: < 50 nM

C=CCC[C@](C)(NC(=O)[C@@H]1C[C@@H](Oc2cc(-c3ccccc3)nc3cc(OC)ccc23)CN1C(=O)C(NC(=O)OC(C)(C)C)C(C)(C)C)C(=O)NS(=O)(=O)c1cccc(C#N)c1 (some centres unmarked) [Compound 40]
IC50 [1]: < 50 nM
EC50 [2]: < 500 nM

C=C[C@@H]1C[C@]1(NC(=O)C1C[C@@H](Oc2cc(-c3ccccc3)nc3cc(OC)ccc23)CN1C(=O)[C@@H](Nc1ccncc1[N+](=O)[O-])C(C)(C)C)C(=O)NS(=O)(=O)C1CC1 (stereo partly drawn) [Compound 129, 1-[3,3-dimethyl-2S-(3-nitropyridin-4-ylamino)-butyryl]-4R-(7-methoxy-2-phenylquinolin-4-yloxy)-pyrrolidine-2S-carboxylic acid (1R-cyclopropanesulfonylaminocarbonyl-2S-vinylcyclopropyl)amide]
IC50 [1]: < 5000 nM
EC50 [2]: < 50000 nM

C=C[C@@H]1C[C@]1(NC(=O)C1CC(Oc2cc(-c3ccccc3)nc3cc(OC)ccc23)CN1C(=O)[C@@H](NS(=O)(=O)C1CC1)C(C)(C)C)C(=O)NS(=O)(=O)C1CC1 (stereo partly drawn) [Compound 118, 1-(2S-cyclopropanesulfonylamino-3,3-dimethyl-butyryl)-4R-(7-methoxy-2-phenyl-quinolin-4-yloxy)-pyrrolidine-2S-carboxylic acid (1R-cyclopropanesulfonylamino-carbonyl-2S-vinyl-cyclopropyl)-amide]
IC50 [1]: < 50 nM
EC50 [2]: < 500 nM

CCC(C)[C@H](NC(=O)OC(C)(C)C)C(=O)N1C[C@H](Oc2cc(-c3ccccc3)nc3cc(OC)ccc23)C[C@H]1C(=O)NC1(C(=O)NS(=O)(=O)C2CC2)CC1 (some centres unmarked) [Compound 68]
IC50 [1]: < 50 nM
EC50 [2]: < 5000 nM

C=CC1C[C@]1(NC(=O)[C@@H]1C[C@@H](Oc2cc(-c3ccccc3)nc3cc(OC)ccc23)CN1C(=O)[C@@H](NC(=O)OC(C)(C)C)C(C)(C)C)C(=O)NS(=O)(=O)C(C)C (some centres unmarked) [Compound 27]
IC50 [1]: < 50 nM
EC50 [2]: < 500 nM

C=C[C@@H]1C[C@]1(NC(=O)C1C[C@@H](Oc2cc(-c3ccccc3)nc3cc(OC)ccc23)CN1C(=O)[C@@H](NC(=O)COC)C(C)(C)C)C(=O)NS(=O)(=O)C1CC1 (stereo partly drawn) [Compound 107, 1-[2S-(2-methoxy-acetylamino)-3,3-dimethyl-butyryl]-4R-(7-methoxy-2-phenyl-quinolin-4-yloxy)-pyrrolidine-2S-carboxylic acid (1R-cyclopropanesulfonylamino-carbonyl-2S-vinyl-cyclopropyl)-amide]
IC50 [1]: < 50 nM
EC50 [2]: < 500 nM

C=C[C@@H]1C[C@]1(NC(=O)C1C[C@@H](Oc2cc(-c3ccccc3)nc3cc(OC)ccc23)CN1C(=O)[C@@H](NC(=O)C(C)(C)C)C(C)(C)C)C(=O)NS(=O)(=O)C1CC1 (stereo partly drawn) [Compound 101, 1-[2S-(2,2-Dimethylpropionylamino)-3,3-dimethyl-butyryl]-4R-(7-methoxy-2-phenyl-quinolin-4-yloxy)-pyrrolidine-2S-carboxylic acid (1R-cyclo-propanesulfonylaminocarbonyl-2S-vinylcyclopropyl)-amide]
IC50 [1]: < 50 nM
EC50 [2]: < 500 nM

C=CC1C[C@]1(NC(=O)[C@@H]1C[C@@H](Oc2cc(-c3ccccc3)nc3cc(OC)ccc23)CN1C(=O)C(NC(=O)OC(C)(C)C)C(C)(C)C)C(=O)NS(=O)(=O)c1ccccc1I (some centres unmarked) [Compound 56]
IC50 [1]: < 50 nM
EC50 [2]: < 500 nM

C=C[C@@H]1C[C@]1(NC(=O)C1C[C@@H](Oc2cc(-c3ccccc3)nc3cc(OC)ccc23)CN1C(=O)[C@@H](NC(=O)OCCCC)C(C)(C)C)C(=O)NS(=O)(=O)C1CC1 (stereo partly drawn) [Compound 127, {1S-[2S-(1R-cyclopropanesulfonylaminocarbonyl-2S-vinyl-cyclopropylcarbamoyl)-4R-(7-methoxy-2-phenyl-quinolin-4-yloxy)-pyrrolidine-1-carbonyl]-2,2-dimethyl-propyl}-carbamic acid butyl ester]
IC50 [1]: < 50 nM
EC50 [2]: < 50 nM

CCC1C[C@]1(NC(=O)[C@@H]1C[C@@H](Oc2cc(-c3ccccc3)nc3cc(OC)ccc23)CN1C(=O)[C@@H](NC(=O)OC1CCCC1)C(C)C)C(=O)NS(=O)(=O)C1CC1 (some centres unmarked) [Compound 6]
IC50 [1]: < 50 nM
EC50 [2]: < 50 nM

C=C1C[C@]1(NC(=O)[C@@H]1C[C@@H](Oc2cc(-c3ccccc3)nc3cc(OC)ccc23)CN1C(=O)C(NC(=O)OC(C)(C)C)C(C)(C)C)C(=O)NS(=O)(=O)c1ccccc1F (some centres unmarked) [Compound 54]
IC50 [1]: < 50 nM
EC50 [2]: < 500 nM
